Reference: patent publication US4866196A, “Phenoxyacetic acid derivatives and preparation thereof” (Tanabe Seiyaku Co., Ltd., priority 1986, dated 1989)
≈ marks a conversion by molar mass, not a printed value.

How the values were obtained:
[1] = tested on: bleeding time; assay: Effect on bleeding time (in vivo); set-up: species or system ddy-male mice; conditions: Mus musculus; oral, 3 hours before tail cut; dose required to induce at least 50% prolongation of bleeding time vs control; read-out: minimum effective dose, prolonging effect on the bleeding time
Method: A test compound (suspended or dissolved in an aqueous 0.25% carboxymethylcellulose solution) was orally administered to ddy-male mice (5 weeks old, 10 mice per group) fasted overnight. Three hours later, the tip (ca. 2 mm) of the tail was cut off under ether anesthesia, and said tail was immersed in physiological saline (37° C.) immediately. The bleeding time (seconds) of the medicated group of mice was compared with that of a control group of mice to which an aqueous 0.25% CMC solution was administered instead of the test compound solution. The prolonging effect of each test compound on the bleeding time was estimated in terms of a minimum effective dose, i.e., the dose required to induce at least 50% prolongation of the bleeding time as compared with that of the control group.

[2] = tested on: collagen-induced platelet aggregation; assay: Effect on collagen-induced platelet aggregation (in vitro); type: cell-based, human; conditions: for IC50: 2 min, human platelet-rich plasma, 4×10^5 cells/mm^3, 2 minutes at 37° C., Born's method, read-out: IC50, collagen-induced platelet aggregation-inhibiting activity
Method: Nine volumes of blood collected from a healthy human were mixed with one volume of 3.13% (w/v) trisodium citrate solution, and the mixture was centrifuged to give platelet-rich plasma ("PRP") as the supernatant. The bottom layer was further centrifuged to give platelet-poor plasma ("PPP") as the supernatant. PRP was diluted with PPP so that the platelet count was about 4×10^5 cells/mm^3. 25 μl of a test compound solution containing an equimolar amount of sodium bicarbonate was added to 200 μl of said diluted PRP. After the mixture was stirred for 2 minutes at 37° C., a collagen solution [25-29 μg/ml solution: Biochim. Biophys. Acta, 186, 254 (1969)] was added thereto to induce platelet aggregation. The degree of platelet aggregation was examined by Born's method (Nature, 194, 927 (1962)), and the platelet aggregation-inhibiting activity of the test compound was estimated. The platlet aggregation-inhibiting activity of the test compound was expressed as IC50, i.e., the concentration of the test compound required to induce 50% inhibition of collagen-induced platelet aggregation.

[3] = tested on: arachidonic acid-induced pulmonary embolism; assay: Effect on arachidonic acid-induced pulmonary embolism (in vivo); set-up: species or system ddy-male mice; conditions: Mus musculus; oral, 3 hours before arachidonic acid; dose required to shorten the recovery time by at least 15% vs control; read-out: Minimum Effective Dose, inhibiting effect on arachidonic acid-induced pulmonary embolism
Method: A test compound (suspended or dissolved in an aqueous sodium bicarbonate and 0.25% carboxymethylcellulose solution) was orally administered to ddy-male mice (5 weeks old, 10 mice per group) fasted overnight. Three hours later, arachidonic acid (125 mg/2.5 ml of 1% NaHCO3 solution+7.5 ml of 0.9% aqueous sodium chloride/kg) was injected to the tail vein of mice to induce pulmonary embolism, and the recovery time(minutes) of locomotive activity of the mice (i.e., the duration from the injection of arachidonic acid to the time the mice recovered from respiratory distress and began to walk) was compared with that of a control group of mice to which an aqueous 0.25% CMC solution was administered instead of the test compound solution. The inhibiting effect of each test compound on arachidonic acid-induced pulmonary embolism was estimated in terms of a minimum effective dose, i.e., the dose required to shorten the recovery time by at least 15% as compared with the control group.

| Structure (SMILES) | minimal effective dose [1] [mg/kg] | IC50 [2] [µg/mL] | platelet aggregation-inhibiting activity relative to 4-(2-benzenesulfonylaminoethyl)phenoxyacetic acid ([2]; in vitro, times as strong as known compound of JP 35910/1982) | minimal effective dose [3] [mg/kg] |
| --- | --- | --- | --- | --- |
| CC(CNS(=O)(=O)c1ccc(Cl)cc1)c1ccc(OCC(=O)O)cc1 (racemic) [Compound No. 2, (±)4-[2(4-chlorophenyl)sulfonylamino-1-methylethyl]phenoxyacetic acid] | 10 | 0.5 (≈ 1.3 µM) | about 4 times | 0.3 |
| CC(Cc1ccc(OCC(=O)O)cc1)NS(=O)(=O)c1ccc(Cl)cc1 (racemic) [Compound No. 1, (±)4-[2(4-chlorophenyl)sulfonylaminopropyl]phenoxyacetic acid] | 3 | 0.7 (≈ 1.82 µM) |  | 1 |
| CC(CNS(=O)(=O)c1ccccc1)c1ccc(OCC(=O)O)c(F)c1 (racemic) [Compound No. 4, (±)4-(2-benzenesulfonylamino-1-methylethyl)-2-fluorophenoxyacetic acid] |  |  |  | 0.1 |
| CC(CNS(=O)(=O)c1ccc(Cl)cc1)c1ccc(OCC(=O)O)c(F)c1 (racemic) [Compound No. 5, (±)4-(2-(4-chlorophenyl)sulfonylamino-1-methylethyl)-2-fluorophenoxyactic acid] |  |  |  | 0.03 |
| O=C(O)COc1ccc(CCNS(=O)(=O)c2ccccc2)cc1 [Known Compound, 4-(2-benzenesulfonylaminoethyl)phenoxyacetic acid, reference compound] | 30 | 2 (≈ 5.96 µM) |  | 30 |
| CC(CNS(=O)(=O)c1ccc(Br)cc1)c1ccc(OCC(=O)O)cc1 (racemic) [Compound No. 3, (±)4-[2(4-bromophenyl)sulfonylamino-1-methylethyl]phenoxyacetic acid] | 10 | 0.5 (≈ 1.17 µM) |  | 0.1 |
